Values quoted from earlier work as cited in PubChem BioAssay AID1259409 (Chemical Carcinogenesis Research Information System (CCRIS), 2018).

System: rodent chemically induced tumor inhibition, incidence and multiplicity
Assay: CCRIS tumor inhibitor studies

## CN1CCN(CCCN2c3ccccc3Sc3ccc(C(F)(F)F)cc32)CC1
Carcinogen: AZOXYMETHANE, 25843-45-2, Dose [Inhibitor]: 0, 15 MG/KG BW IN OLIVE OIL 1/2 D FOR 35 WK BEGINNING WITH START OF CARCINOGEN TREATMENT (STUDY DURATION: 35 WK), Route [Inhibitor]: SUBCUTANEOUS, Species: RAT, Strain/Sex: WISTAR/MALE, Target Tissue: Type of Lesion: COLON: TUMORS, Dose [Carcinogen]: 7.4 MG/KG BW IN 0.9% SALINE 1/WK FOR 10 WK, Promoter: NONE USED
  tumour outcome (control, treated, inhibition, significance): 8/17 (47%), 11/17 (65%), -38%, not significant
Carcinogen: AZOXYMETHANE, 25843-45-2, Dose [Inhibitor]: 0, 30 MG/KG BW IN OLIVE OIL 1/2 D FOR 35 WK BEGINNING WITH START OF CARCINOGEN TREATMENT (STUDY DURATION: 35 WK), Route [Inhibitor]: SUBCUTANEOUS, Species: RAT, Strain/Sex: WISTAR/MALE, Target Tissue: Type of Lesion: COLON: TUMORS, Dose [Carcinogen]: 7.4 MG/KG BW IN 0.9% SALINE 1/WK FOR 10 WK, Promoter: NONE USED
  tumour outcome (control, treated, inhibition, significance): 8/17 (47%), 9/20 (45%), 4%, not significant

## CCCCCCCCCC
Carcinogen: BENZO[A]PYRENE, 50-32-8, Dose [Inhibitor]: 25 MG IN 0.1 ML ACETONE 3/WK ADMINISTERED SIMULTANEOUSLY WITH CARCINOGEN FOR DU RATION OF STUDY (STUDY DURATION: 440 D), Route [Inhibitor]: DERMAL, Species: MOUSE, Strain/Sex: ICR/FEMALE, Target Tissue: Type of Lesion: SKIN: SQUAMOUS CARCINOMA, Dose [Carcinogen]: 5 UG IN 0.1 ML ACETONE 3/WK FOR DURATION OF STUDY, Promoter: NONE USED
  tumour outcome (control, treated, inhibition, significance): 12/50 (24%), 34/50 (68%), -183%, not calculated
Carcinogen: BENZO[A]PYRENE, 50-32-8, Dose [Inhibitor]: 25 MG IN 0.1 ML ACETONE 3/WK ADMINISTERED SIMULTANEOUSLY WITH CARCINOGEN FOR DURATION OF STUDY (STUDY DURATION: 440 D), Route [Inhibitor]: DERMAL, Species: MOUSE, Strain/Sex: ICR/FEMALE, Target Tissue: Type of Lesion: SKIN: PAPILLOMA, Dose [Carcinogen]: 5 UG IN 0.1 ML ACETONE 3/WK FOR DURATION OF STUDY, Promoter: NONE USED
  tumour outcome (control, treated, inhibition, significance): 16/50 (32%), 38/50 (76%), -138%, not calculated

## CC(=O)O[C@]1(C(C)=O)CC[C@H]2[C@@H]3C[C@H](C)C4=CC(=O)CC[C@]4(C)[C@H]3CC[C@@]21C
Carcinogen: 7,12-DIMETHYLBENZ[A]ANTHRACENE, 57-97-6, Dose [Inhibitor]: 0, 30 MG (AS DEPO-PROVERA) ONCE 3 WK POST CARCINOGEN DOSE (STUDY DURATION: 85 D), Route [Inhibitor]: SUBCUTANEOUS, Species: RAT, Strain/Sex: SPRAGUE-DAWLEY/FEMALE, Target Tissue: Type of Lesion: MAMMARY GLAND: TUMOR, Dose [Carcinogen]: 20 MG IN 1 ML CORN OIL ONCE, Promoter: NONE USED
  tumour outcome (control, treated, inhibition, significance): 63%, 49%, 22%, not calculated
Carcinogen: 7,12-DIMETHYLBENZ[A]ANTHRACENE, 57-97-6, Dose [Inhibitor]: 0, 30 MG (AS DEPO-PROVERA) ONCE 7 D PRIOR TO CARCINOGEN DOSE (STUDY DURATION: 92 D), Route [Inhibitor]: SUBCUTANEOUS, Species: RAT, Strain/Sex: SPRAGUE-DAWLEY/FEMALE, Target Tissue: Type of Lesion: MAMMARY GLAND: TUMOR, Dose [Carcinogen]: 20 MG IN 1 ML CORN OIL ONCE, Promoter: NONE USED
  tumour outcome (control, treated, inhibition, significance): 63%, 28%, 56%, not calculated
Carcinogen: 7,12-DIMETHYLBENZ[A]ANTHRACENE, 57-97-6, Dose [Inhibitor]: 0, 30 MG (MICROSPHERES) ONCE 7 D PRIOR TO CARCINOGEN DOSE (STUDY DURATION: 92 D), Route [Inhibitor]: SUBCUTANEOUS, Species: RAT, Strain/Sex: SPRAGUE-DAWLEY/FEMALE, Target Tissue: Type of Lesion: MAMMARY GLAND: TUMOR, Dose [Carcinogen]: 20 MG IN 1 ML CORN OIL ONCE, Promoter: NONE USED
  tumour outcome (control, treated, inhibition, significance): 63%, 7%, 89%, not calculated
Carcinogen: 7,12-DIMETHYLBENZ[A]ANTHRACENE, 57-97-6, Dose [Inhibitor]: 0, 100 MG (AS DEPO-PROVERA) ONCE 3 WK POST CARCINOGEN DOSE (STUDY DURATION: 85 WK), Route [Inhibitor]: SUBCUTANEOUS, Species: RAT, Strain/Sex: SPRAGUE-DAWLEY/FEMALE, Target Tissue: Type of Lesion: MAMMARY GLAND: TUMOR, Dose [Carcinogen]: 20 MG IN 1 ML CORN OIL ONCE, Promoter: NONE USED
  tumour outcome (control, treated, inhibition, significance): 63%, 29%, 54%, not calculated
Carcinogen: 7,12-DIMETHYLBENZ[A]ANTHRACENE, 57-97-6, Dose [Inhibitor]: 0, 100 MG (AS DEPO-PROVERA) ONCE 7 D PRIOR TO CARCINOGEN DOSE (STUDY DURATION: 92 D), Route [Inhibitor]: SUBCUTANEOUS, Species: RAT, Strain/Sex: SPRAGUE-DAWLEY/FEMALE, Target Tissue: Type of Lesion: MAMMARY GLAND: TUMOR, Dose [Carcinogen]: 20 MG IN 1 ML CORN OIL ONCE, Promoter: NONE USED
  tumour outcome (control, treated, inhibition, significance): 63%, 23%, 63%, not calculated
Carcinogen: 7,12-DIMETHYLBENZ[A]ANTHRACENE, 57-97-6, Dose [Inhibitor]: 0, 100 MG (MICROSPHERES) ONCE 7 D PRIOR TO CARCINOGEN DOSE (STUDY DURATION: 92 D), Route [Inhibitor]: SUBCUTANEOUS, Species: RAT, Strain/Sex: SPRAGUE-DAWLEY/FEMALE, Target Tissue: Type of Lesion: MAMMARY GLAND: TUMOR, Dose [Carcinogen]: 20 MG IN 1 ML CORN OIL ONCE, Promoter: NONE USED
  tumour outcome (control, treated, inhibition, significance): 63%, 6%, 90%, not calculated
Carcinogen: METHYLNITROSOUREA, 684-93-5, Dose [Inhibitor]: 0, 40 MG DEPOT EVERY 2 MO (STUDY DURATION: 345 D), Route [Inhibitor]: SUBCUTANEOUS, Species: MOUSE, Strain/Sex: BALB/FEMALE, Target Tissue: Type of Lesion: HEMATOPOIETIC SYSTEM: LYMPHOMA, Dose [Carcinogen]: 50 MG/KG BW ONCE 15 D POST INHIBITOR REMOVAL, Promoter: NONE
  tumour outcome (control, treated, inhibition, significance): 18/28 (65%), 5/35 (17%), 74%, p<0.05
Carcinogen: METHYLNITROSOUREA, 684-93-5, Dose [Inhibitor]: 0, 40 MG DEPOT EVERY 2 MO (STUDY DURATION: 345 D), Route [Inhibitor]: SUBCUTANEOUS, Species: MOUSE, Strain/Sex: BALB/FEMALE, Target Tissue: Type of Lesion: LUNG: TUMOR, Dose [Carcinogen]: 50 MG/KG BW ONCE 15 D POST INHIBITOR REMOVAL, Promoter: NONE
  tumour outcome (control, treated, inhibition, significance): 24/28 (86%), 28/31 (89%), -3%, not significant
Carcinogen: METHYLNITROSOUREA, 684-93-5, Dose [Inhibitor]: 0, 40 MG DEPOT EVERY 3 MO (STUDY DURATION: 277 D), Route [Inhibitor]: SUBCUTANEOUS, Species: MOUSE, Strain/Sex: BALB/FEMALE, Target Tissue: Type of Lesion: HEMATOPOIETIC SYSTEM: LYMPHOMA, Dose [Carcinogen]: 50 MG/KG BW ONCE 1 WK POST INHIBITOR FIRST DOSE, Promoter: NONE
  tumour outcome (control, treated, inhibition, significance): 18/28 (65%), 7/35 (19%), 71%, p<0.05
Carcinogen: METHYLNITROSOUREA, 684-93-5, Dose [Inhibitor]: 0, 40 MG DEPOT EVERY 3 MO (STUDY DURATION: 277 D), Route [Inhibitor]: SUBCUTANEOUS, Species: MOUSE, Strain/Sex: BALB/FEMALE, Target Tissue: Type of Lesion: LUNG: TUMOR, Dose [Carcinogen]: 50 MG/KG BW ONCE 1 WK POST INHIBITOR FIRST DOSE, Promoter: NONE
  tumour outcome (control, treated, inhibition, significance): 24/28 (86%), 31/35 (88%), -2%, not significant
Carcinogen: METHYLNITROSOUREA, 684-93-5, Dose [Inhibitor]: 0, 40 MG DEPOT EVERY 3 MO BEGINNING 1 WK POST CARCINOGEN (STUDY DURATION: 9 MO), Route [Inhibitor]: SUBCUTANEOUS, Species: MOUSE, Strain/Sex: BALB/FEMALE, Target Tissue: Type of Lesion: HEMATOPOIETIC SYSTEM: LYMPHOMA, Dose [Carcinogen]: 50 MG/KG BW ONCE, Promoter: NONE
  tumour outcome (control, treated, inhibition, significance): 18/28 (65%), 7/50 (15%), 77%, p<0.05
Carcinogen: METHYLNITROSOUREA, 684-93-5, Dose [Inhibitor]: 0, 40 MG DEPOT EVERY 3 MO BEGINNING 1 WK POST CARCINOGEN (STUDY DURATION: 9 MO), Route [Inhibitor]: SUBCUTANEOUS, Species: MOUSE, Strain/Sex: BALB/FEMALE, Target Tissue: Type of Lesion: LUNG: TUMOR, Dose [Carcinogen]: 50 MG/KG BW ONCE, Promoter: NONE
  tumour outcome (control, treated, inhibition, significance): 24/28 (86%), 44/50 (89%), -3%, not significant
Carcinogen: METHYLNITROSOUREA, 684-93-5, Dose [Inhibitor]: 0, 40 MG DEPOT FOR 2 MO BEGINNING 1 WK POST CARCINOGEN (STUDY DURATION: 9 MO), Route [Inhibitor]: SUBCUTANEOUS, Species: MOUSE, Strain/Sex: BALB/FEMALE, Target Tissue: Type of Lesion: HEMATOPOIETIC SYSTEM: LYMPHOMA, Dose [Carcinogen]: 50 MG/KG BW ONCE, Promoter: NONE
  tumour outcome (control, treated, inhibition, significance): 18/28 (65%), 7/27 (26%), 60%, p<0.05
Carcinogen: METHYLNITROSOUREA, 684-93-5, Dose [Inhibitor]: 0, 40 MG DEPOT FOR 2 MO BEGINNING 1 WK POST CARCINOGEN (STUDY DURATION: 9 MO), Route [Inhibitor]: SUBCUTANEOUS, Species: MOUSE, Strain/Sex: BALB/FEMALE, Target Tissue: Type of Lesion: LUNG: TUMOR, Dose [Carcinogen]: 50 MG/KG BW ONCE, Promoter: NONE
  tumour outcome (control, treated, inhibition, significance): 24/28 (86%), 23/27 (85%), 0%, not significant

## CCCCOC(=O)c1ccccc1C(=O)OCc1ccccc1
Carcinogen: 7,12-DIMETHYLBENZ[A]ANTHRACENE, 57-97-6, Dose [Inhibitor]: 0, 250 MG/KG IN CORN OIL 1/D FOR 7 D PRIOR TO CARCINOGEN DOSE (STUDY DURATION: 16 WK), Route [Inhibitor]: GAVAGE, Species: RAT, Strain/Sex: ?/FEMALE, Target Tissue: Type of Lesion: MAMMARY GLAND: TUMOR, Dose [Carcinogen]: 31 MG/KG IN CORN OIL ONCE, Promoter: NONE USED
  tumour outcome (control, treated, inhibition, significance): 82%, 52%, 37%, p<0.05
Carcinogen: 7,12-DIMETHYLBENZ[A]ANTHRACENE, 57-97-6, Dose [Inhibitor]: 0, 500 MG/KG IN CORN OIL 1/D FOR 7 D PRIOR TO CARCINOGEN DOSE (STUDY DURATION: 16 WK), Route [Inhibitor]: GAVAGE, Species: RAT, Strain/Sex: ?/FEMALE, Target Tissue: Type of Lesion: MAMMARY GLAND: TUMOR, Dose [Carcinogen]: 31 MG/KG IN CORN OIL ONCE, Promoter: NONE USED
  tumour outcome (control, treated, inhibition, significance): 82%, 52%, 37%, p<0.05
